Measurements from the NIST ThermoML archive (doi:10.1021/je100945u).
Numbers after ± are expanded uncertainties.

Settings: Liquid, Vibrating tube method

CCn1cc[n+](C)c1.O=S(=O)([N-]S(=O)(=O)C(F)(F)F)C(F)(F)F
Settings	mass density [kg/m3]
283.15 K, 101.33 kPa	1533.48 ± 0.71
283.19 K, 1750 kPa	1533.9 ± 2.5
283.19 K, 5136 kPa	1536.34 ± 2.6
283.19 K, 49993 kPa	1565.54 ± 3
283.19 K, 60272 kPa	1571.51 ± 3.1
283.19 K, 69996 kPa	1577 ± 3.3
283.19 K, 80287 kPa	1582.65 ± 3.5
283.19 K, 89994 kPa	1587.84 ± 3.6
283.2 K, 10046 kPa	1539.78 ± 2.6
283.2 K, 29957 kPa	1553.14 ± 2.8
283.2 K, 40033 kPa	1559.47 ± 2.9
283.21 K, 20030 kPa	1546.57 ± 2.7
283.21 K, 100034 kPa	1593.02 ± 3.8
293.14 K, 99755 kPa	1584.89 ± 3.7
293.15 K, 101.33 kPa	1523.37 ± 0.7
293.15 K, 10202 kPa	1530.8 ± 2.6
293.15 K, 89934 kPa	1579.84 ± 3.6
293.16 K, 20787 kPa	1538.14 ± 2.7
293.16 K, 59685 kPa	1562.92 ± 3.1
293.16 K, 69993 kPa	1568.91 ± 3.3
293.17 K, 1027 kPa	1524.24 ± 2.5
293.17 K, 4981 kPa	1527.1 ± 2.5
293.17 K, 29994 kPa	1544.31 ± 2.8
293.17 K, 49993 kPa	1557.07 ± 3
293.17 K, 79912 kPa	1574.47 ± 3.4
293.19 K, 39872 kPa	1550.73 ± 2.9
298.12 K, 19701 kPa	1532.45 ± 2.6
298.12 K, 29779 kPa	1539.35 ± 2.8
298.13 K, 39926 kPa	1546.05 ± 2.9
298.14 K, 1156 kPa	1519.1 ± 2.5
298.15 K, 101.33 kPa	1518.34 ± 0.69
298.15 K, 49997 kPa	1552.45 ± 3
298.17 K, 5194 kPa	1522.08 ± 2.5
298.18 K, 90001 kPa	1575.41 ± 3.6
298.18 K, 99950 kPa	1580.52 ± 3.7
298.19 K, 10066 kPa	1525.62 ± 2.6
298.19 K, 69997 kPa	1564.42 ± 3.2
298.19 K, 79938 kPa	1570 ± 3.4
298.2 K, 59613 kPa	1558.32 ± 3.1
313.15 K, 101.33 kPa	1503.33 ± 0.68
313.15 K, 10156 kPa	1510.84 ± 2.5
313.15 K, 29996 kPa	1525.09 ± 2.7
313.15 K, 39897 kPa	1531.84 ± 2.8
313.15 K, 49994 kPa	1538.48 ± 2.9
313.15 K, 60124 kPa	1544.89 ± 3.1
313.15 K, 69993 kPa	1550.88 ± 3.2
313.16 K, 1963 kPa	1504.67 ± 2.5
313.16 K, 19902 kPa	1517.96 ± 2.6
313.16 K, 80342 kPa	1556.93 ± 3.4
313.16 K, 89994 kPa	1562.32 ± 3.5
313.17 K, 5147 kPa	1507.08 ± 2.5
313.17 K, 100087 kPa	1567.72 ± 3.7
333.13 K, 80064 kPa	1539.77 ± 3.3
333.13 K, 89994 kPa	1545.53 ± 3.4
333.14 K, 69997 kPa	1533.66 ± 3.1
333.14 K, 99911 kPa	1551 ± 3.6
333.15 K, 101.33 kPa	1483.53 ± 0.66
333.15 K, 60111 kPa	1527.39 ± 3
333.16 K, 49997 kPa	1520.69 ± 2.9
333.17 K, 2359 kPa	1485.34 ± 2.5
333.17 K, 5331 kPa	1487.73 ± 2.5
333.17 K, 40159 kPa	1513.9 ± 2.8
333.18 K, 30001 kPa	1506.61 ± 2.7
333.19 K, 9791 kPa	1491.26 ± 2.5
333.19 K, 18829 kPa	1498.27 ± 2.6
353.15 K, 101.33 kPa	1463.97 ± 0.64
353.18 K, 2168 kPa	1465.71 ± 2.4
353.18 K, 5223 kPa	1468.32 ± 2.4
353.18 K, 69993 kPa	1516.73 ± 3.1
353.18 K, 80056 kPa	1523.09 ± 3.2
353.18 K, 90001 kPa	1529.06 ± 3.4
353.19 K, 9673 kPa	1472.06 ± 2.5
353.19 K, 20093 kPa	1480.58 ± 2.5
353.19 K, 29997 kPa	1488.37 ± 2.6
353.19 K, 39951 kPa	1495.89 ± 2.7
353.19 K, 49979 kPa	1503.15 ± 2.8
353.19 K, 60184 kPa	1510.23 ± 3
353.19 K, 99944 kPa	1534.73 ± 3.5
363.15 K, 101.33 kPa	1454.28 ± 0.63
373.12 K, 724 kPa	1445.01 ± 2.4
373.14 K, 4935 kPa	1448.84 ± 2.4
373.14 K, 60448 kPa	1493.21 ± 2.9
373.14 K, 69979 kPa	1499.69 ± 3
373.14 K, 79868 kPa	1506.16 ± 3.2
373.14 K, 89963 kPa	1512.49 ± 3.3
373.14 K, 99920 kPa	1518.52 ± 3.5
373.16 K, 30001 kPa	1470.33 ± 2.6
373.16 K, 39858 kPa	1478.08 ± 2.7
373.16 K, 49997 kPa	1485.67 ± 2.8
373.17 K, 10147 kPa	1453.42 ± 2.4
373.18 K, 19879 kPa	1461.85 ± 2.5
